Source: patent US8318704B2, “Modulation of neural stem cells and neural progenitor cells” (NeuroNova AB, priority 2002, dated 2012)

Assays:
[1] = test system: adult mouse NSC; assay: Intracellular ATP assay (cell number) in neurosphere-derived NSC; format: cell-based; conditions: for intracellular ATP levels, and hence NSC number, factor alone: S1P 100 nM or EGF 0.1 nM alone, 3 days (FIG. 8); for intracellular ATP levels, and hence cell number, relative to control: 3 days
Procedure: (§1) The anterior lateral wall of the lateral ventricle of 5-6 week old mice was enzymatically dissociated in 0.8 mg/ml hyaluronidase and 0.5 mg/ml trypsin in DMEM containing 4.5 mg/ml glucose and 80 units/ml DNase at 37° C. for 20 min. The cells were gently triturated and mixed with three volumes of Neurosphere medium (DMEM/F12, B27 supplement, 12.5 mM HEPES pH7.4) containing 20 ng/ml EGF (unless otherwise stated), 100 units/ml penicillin and 100 μg/ml streptomycin. After passing through a 70 μm strainer, the cells were pelleted at 160×g for 5 min. The supernatant was subsequently removed and the cells resuspended in Neurosphere medium supplemented as above, plated out in culture dishes and incubated at 37° C. Neurospheres were ready to be split approximately 7 days after plating.
(§2) To split neurosphere cultures, neurospheres were collected by centrifugation at 160×g for 5 min. The neurospheres were resuspended in 0.5 ml Trypsin/EDTA in HBSS (1×), incubated at 37° C. for 2 min and triturated gently to aid dissociation. Following a further 3 min incubation at 37° C. and trituration, 3 volumes of ice cold NSPH-media-EGF were added to stop further trypsin activity. The cells were pelleted at 220×g for 4 min, resuspended in fresh Neurosphere medium supplemented with 20 ng/ml EGF and 1 nM bFGF plated out and incubated at 37° C.
Mouse neurospheres, cultured as described above, from passage 2, were seeded in DMEM/F12 supplemented with B27 into a 96-well plate as single cells (10000 cells/well) to the substances to be measured were added at the concentrations indicated. After 3 days incubation, intracellular ATP was measured using the ViaLight kit (BioWhittaker) according to the manufacturer's instructions. S1P and LPA were purchased from Avanti Polar Lipids, Inc.
(§3) In assays including pertussis toxin, the toxin was added at 100 ng/ml 24 hours prior to the second passaging. New toxin was added at the same dose in combination with S1P or LPA to the cells and assayed as described above.
In the experiment analysing the combinatory effect of S1P and EGF, S1P at 100 nM was co-incubated with 0.1 nM EGF for 3 days.

[2] = test system: new born cells in the caudate putamen; assay: Intracerebroventricular infusion, BrdU-positive cells in caudate putamen; format: in vivo, rat; conditions: S1P 10 μM pump concentration, lateral ventricle, 0.5 μl/hr for 14 days
Procedure: Arrival of animals: 06.1102 (30 animals), 13.11.02 (30 animals) and 20.11.02 (10 animals): Male Wistar rats, ca. 270 g, Harlan-Winkelmann Germany;
Brain infusion kit II; Alzet osmotic mini-pump model 2002 (volume of pump: 200 μl, plus ca. 30-50 μl volume in tubing/flow-moderator; pumping rate: 0.5 μl/h (=12 μl/d) for 14 days; vehicle solution aCSF (artificial cerebrospinal fluid: 148 mM NaCl, 3 mM KCl, 1.4 mM CaCl2, 0.8 mM MgCl2, 1.5 mM Na2HPO4, 0.2 mM NaH2PO4, pH 7.4, sterile filtration; stored at −20° C.
provided as 1 mg solid, dissolved in DMSO, aliquoted and kept in freezer, thawed and added aCSF to make pump solution, 0.1% DMSO maximum. […]
Quantification in ipsilateral hemisphere: two slices (see point “Immunohistochemistry”) counting 2× one box (0.25 mm^2) in caudate putamen on each section.
S1P (10 μM pump concentration) or vehicle, and BrdU (1 mg/ml pump concentration) was infused into the lateral ventricle of adult male Wistar rats at a rate of 0.5 μl/hr for 14 days. […] BrdU incorporated into the nuclei of proliferating cells was detected by DAB-immunohistochemistry. […] For quantification (FIG. 10), sections were taken in duplicate for each animal and counted manually (see above Methods). Results are expressed as the mean±SEM number of BrdU positive cells/0.25 mm^2 (S1P n=8) (Vehicle n=12) (**p<0.005 relative to Vehicle).

[3] = test system: adult mouse NSC; assay: 3H-thymidine incorporation into DNA of NSC; format: cell-based
Procedure: as §1, §2, §3
To determine thymidine incorporation into DNA, neurospheres were split and seeded in Neurosphere medium as single cells in 96-well plates, 10 000 cells/well. Substances to be measured were added in quadruplicates and cells were incubated at 37° C. for 3 days. 3H-thymidine, 10 uCi/ml, was present the last 24 hours. Cells were harvested on to a filter paper and radioactivity was measured. 3H-thymidine (6,7 Ci/mmol) was from PerkinElmer.

[4] = in vitro EC50 listed in the handling of substances table
[5] = test system: primary adult mouse NSC; assay: Primary NSC proliferation and neurosphere formation without growth factors; format: cell-based; conditions: LPA 10 μM, no EGF, 7 days (FIG. 9)
Procedure: as §1
Anterior lateral wall of the lateral ventricle was dissociated as described in the Methods above (Method A), and the cells resuspended in Neurosphere medium without EGF. The cell suspension was divided into a 24-well plate with triplicates of control (no addition), LPA treated and EGF (1 nM) treated cells. The final concentration of LPA was 10 μM. After 7 days the spheres were counted, inspected for growth and morphology and photographed using a Nikon Eclipse TE300 microscope and Nikon Spot Insight camera.

Row | EC50 [4] | Compound | intracellular ATP levels, and hence NSC number, factor alone [1] | intracellular ATP levels, and hence cell number, relative to control ([1]; S1P 1-100 nM, non-adherent conditions (FIG. 4A)) | BrdU labeling of cells in coronal sections through the caudate putamen relative to vehicle ([2]; adult male Wistar rats) | number of BrdU positive cells/0.25 mm^2 (new born cells) in the caudate putamen relative to vehicle ([2]; n=8, p<0.005 (FIG. 10)) | incorporation of tritiated thymidine relative to control ([3]; S1P 1-100 nM, 3 days (FIG. 4B)) | sizes and number of neurospheres versus control [5] | intracellular ATP levels, and hence cell number, relative to control ([1]; LPA, two phases: 1-10 nM and 0.11-10 μM, non-adherent conditions (FIG. 5A)) | incorporation of tritiated thymidine relative to control ([3]; LPA 4 nM (FIG. 5B)) | incorporation of tritiated thymidine relative to control ([3]; LPA 10 nM (FIG. 5B)) | incorporation of tritiated thymidine relative to control ([3]; LPA 10 μM (FIG. 5B))
1 | 30 nM | CCCCCCCCCCCCC/C=C/[C@@H](O)[C@@H](N)COP(=O)(O)O [S1P, sphingosine-1-phosphate] | increased | statistically significant increase | substantially greater number | significant increase | Greater incorporation | – | – | – | – | –
2 | – | EGF: mitogen (growth factor) for neural progenitors, from BD Biosciences | increased | – | – | – | – | – | – | – | – | –
3 | – | lysophosphatidic acid [LPA] | – | – | – | – | – | observably greater | statistically significant increases | Greater incorporation | no significant incorporation | Greater incorporation
